# Ends that are not written are not given here.
# Columns and labels:
# [1] = system: keratinocytes; assay: ratiometric Ca^2+ imaging of keratinocytes; assay type: cell-based, human; details: for SLIGRL-evoked Ca^2+ influx / intracellular Ca^2+ response of keratinocytes: SLIGRL 100 μM; for SLIGRL-evoked Ca^2+ influx / tryptase-evoked Ca^2+ influx: 2 mM Ca^2+, 50 μM 2-APB, 50 nM La^3+; for tryptase-evoked Ca^2+ influx / intracellular Ca^2+ response of keratinocytes: tryptase 100 nM; for intracellular Ca^2+ response of keratinocytes: BAM8-22 2 μM
# Experimental: (§1) Physiological Ringer solution: 140 mM NaCl, 5 mM KCl, 10 mM HEPES, 2 mM CaCl2, 2 mM MgCl2, 10 mM D-(+)-glucose, pH 7.4 with NaOH. Images were collected and analyzed using MetaFluor (Molecular Devices).
# [2] = system: NFAT; assay: NFAT translocation to the nucleus in keratinocytes (immunostaining); assay type: cell-based, human; details: for SLIGRL-induced NFAT nuclear translocation in the presence of inhibitor: SLIGRL 100 μM + 2APB 50 μM or CsA 1 μM, 30 min
# Experimental: Histology Histology was carried out as previously described (Gerhold, 2013). Antibodies: rabbit anti-PGP9.5 and rabbit anti-peripherin (Millipore) 1:1000; goat anti-TSLPR and mouse anti-NFATcI (Santa Cruz Biotechnology) 1:100. IL7Rα and TSLPR probes (Panomics) were used for in situ hybridization following the Quantigene protocol (Panomics).
# Following a rise in Ca^2+, NFAT is dephosphorylated by the Ca^2+-dependent phosphatase calcineurin and translocates from the cytosol to the nucleus to promote transcription of target genes (Rao et al., 1997).
# [3] = system: DRG neurons; assay: ratiometric Ca^2+ imaging of DRG neurons; assay type: cell-based, mouse; details: for Ca^2+ levels in TSLP-positive cells on subsequent exposure: AITC 200 μM, CAP 1 μM, all TSLP-positive cells; for overlap of the TSLP-sensitive population with the population sensitive to the compound: DRG neurons, FIG. 3D; for prevalence of TSLP-sensitive neurons / TSLP-evoked Ca^2+ signals after pre-treatment: neurons pre-treated with blocker versus vehicle
# Experimental: as §1
# [4] = system: mice; assay: mouse cheek model of itch (scratching behavior after intradermal injection); assay type: in vivo
# Experimental: Mice and Behavior Mice (20-35 g) were housed in 12 h light-dark cycle at 21° C. […] For AITC behavior, 5 μL 10% AITC in mineral oil was applied to the right hind paw. Behavioral scoring was performed while blind to treatment and genotype. All experiments were performed under the policies and recommendations of the International Association for the Study of Pain and approved by the University of California, Berkeley Animal Care and Use Committee. […]
# [5] = system: keratinocytes; assay: TSLP release from keratinocytes (ELISA); assay type: cell-based, human; details: 24 h treatment, tryptase 100 nM, SLIGRL 100 μM; for TSLP secretion: TG 1 μM, versus vehicle; for TSLP secretion in the absence of external Ca^2+: 0 Ca
# From the text: TSLP release was normalized to vehicle.
# [6] = system: TSLP transcripts; assay: expression of TSLP transcripts in keratinocytes; assay type: cell-based, human; details: PAR2-evoked SOCE; 3 h treatment with SLIGRL 100 μM versus vehicle
# Experimental: RT-PCR RNA was extracted using RNeasy (Qiagen) and reverse transcription was performed using Superscript III. RT-PCR was carried out using SYBR Green (Invitrogen) on a StepOnePlus ABI machine. Threshold cycles for each transcript (Bogiatzi et al.) were normalized to GAPDH (ACt). Calibrations and normalizations used the 2^−ΔΔCt method where ΔΔCt=[(Ct (target gene)−Ct (reference gene)]−[Ct (calibrator)−Ct (reference gene)]; GAPDH=reference gene; scrambled siRNA=calibrator. Experiments were performed in triplicate.
# [7] = system: keratinocytes; assay: perforated-patch voltage-clamp recordings on keratinocytes; assay type: cell-based, human; details: SLIGRL 100 μM
# Experimental: Electrophysiology Recordings were collected at 5 kHz and filtered at 2 kHz using an Axopatch 200B and PClamp software. Electrode resistances were 2-6 MΩ. Perforated patch internal solution: 140 mM CsCl, 5 mM EGTA, 10 mM HEPES, pH 7.4 with CsOH, 0.24 mg ml^−1 Amphotericin B (Rae et al., 1991). Stimulation protocol: 10 ms step to −80 mV, 150 ms ramp from −80 mV to +80 mV. Current clamp internal solution: 140 mM KCl, 5 mM EGTA and 10 mM HEPES (pH 7.4 with KOH). Series resistance of all cells were <30 MΩ, and liquid junction potentials were <5 mV (no correction).
# [8] = system: DRG neuron; assay: current-clamp recording in DRG neuron; assay type: cell-based, mouse; details: subset of CAP-sensitive DRG neurons
# [9] = molecular target: T1, MrgprC11 (Mus musculus, UniProt Q8CIP3); assay: Ca^2+ response in the presence or absence of the mouse BAM8-22 receptor MrgprC11; assay type: cell-based; details: tryptase 3 μM
# T1 sequence (Q8CIP3 1-322): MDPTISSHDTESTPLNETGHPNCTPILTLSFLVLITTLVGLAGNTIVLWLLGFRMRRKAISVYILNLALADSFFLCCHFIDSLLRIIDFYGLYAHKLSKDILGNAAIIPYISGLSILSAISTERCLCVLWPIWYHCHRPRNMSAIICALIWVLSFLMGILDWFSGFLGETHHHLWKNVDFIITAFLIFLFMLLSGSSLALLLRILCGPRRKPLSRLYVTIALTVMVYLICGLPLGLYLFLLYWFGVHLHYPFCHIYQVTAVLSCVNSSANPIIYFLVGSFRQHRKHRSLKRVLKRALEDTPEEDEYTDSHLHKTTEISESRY
# Experimental: FIG. 15. […] MrgprX1 was amplified from DRG, but not keratinocytes. MrgprX1 and GAPDH were amplified from RT-treated tissue but not from “no RT” controls. (B) Representative response to BAM8-22 (BAM, 2 μM) in human keratinocytes. (C) Representative response to tryptase (TRY, 3 μM) and BAM8-22 (BAM, 2 μM) in the presence or absence of the mouse BAM8-22 receptor, MrgprC11. (D) Left: representative traces showing a neuron that is sensitive to BAM8-22 (BAM) but not tryptase (TRY, blue), and a neuron that is sensitive to tryptase but not BAM8-22 (black). Right: quantification of the prevalence of tryptase-responsive (TRY, black), BAM8-22-responsive (blue, BAM), and tryptase- and BAM8-22-responsive neurons in mouse dorsal root ganglia. n≧500 cells. Data are represented as mean+/−SEM
molecule,measurement,setting,value
"NCCOB(c1ccccc1)c1ccccc1 [2-APB, 2-Aminoethoxydiphenyl borate]",SLIGRL-evoked Ca^2+ influx,[1],significantly attenuated
same,tryptase-evoked Ca^2+ influx,[1],significantly attenuated
same,SLIGRL-induced NFAT nuclear translocation in the presence of inhibitor,[2],attenuated
same,SLIGRL-induced NFAT nuclear translocation in the presence of inhibitor,[2]; listed as 2APB,prevented
"C=CCN=C=S [AITC, allyl isothiocyanate]",Ca^2+ levels in TSLP-positive cells on subsequent exposure,[3],further increased
"COc1cc(CNC(=O)CCCC/C=C/C(C)C)ccc1O [CAP, capsaicin]",Ca^2+ levels in TSLP-positive cells on subsequent exposure,[3],further increased
"CCN(CC)CCCC(C)Nc1ccnc2cc(Cl)ccc12 (stereo not shown) [CQ, chloroquine]",overlap of the TSLP-sensitive population with the population sensitive to the compound,[3],6%
"[La+3] [La^3+, lanthanum]",SLIGRL-evoked Ca^2+ influx,[1],significantly attenuated
same,tryptase-evoked Ca^2+ influx,[1],significantly attenuated
"C=C(C)[C@]12C[C@@H](C)[C@@]34O[C@](Cc5ccccc5)(O[C@@H]1[C@@H]3C=C(COC(=O)Cc1ccc(O)c(OC)c1)C[C@]1(O)C(=O)C(C)=C[C@@H]41)O2 [RTX, resiniferatoxin]",TSLP-evoked scratching after neuronal ablation,"[4]; RTX-treated mice compared to control mice, RTX two days prior to pruritogen",significantly decreased
"C/C=C(/C)C(=O)O[C@H]1C(C)=C2[C@H]([C@@H]1OC(=O)CCCCCCC)[C@@](C)(OC(C)=O)C[C@H](OC(=O)CCC)[C@@]1(O)[C@H]2OC(=O)[C@@]1(C)O [TG, thapsigargin]",TSLP secretion,[5],significant increase
"COc1ccc2c(c1)CC[C@@H]1[C@@H]2CC[C@]2(C)[C@@H](NCCCCCCN3C(=O)C=CC3=O)CC[C@@H]12 [U73122, 1-[6-[[(17β)-3-Methoxyestra-1,3,5(10)-trien-17-yl]amino]hexyl]-1H-pyrrole-2,5-dione]",prevalence of TSLP-sensitive neurons / TSLP-evoked Ca^2+ signals after pre-treatment,[3],significantly reduced
same,TSLP-evoked scratching after intradermal injection of PLC blocker,"[4]; 30 min preinjection, versus vehicle, scratching quantified for 20 min",significantly attenuated
same,CQ-evoked scratching after intradermal injection of PLC blocker,"[4]; preinjection, versus vehicle",normal
O=C1OC2(c3ccccc31)c1ccc(O)c(O)c1Oc1c2ccc(O)c1O [gallein],prevalence of TSLP-sensitive neurons / TSLP-evoked Ca^2+ signals after pre-treatment,[3],no effect
NCCc1c[nH]cn1 [histamine],overlap of the TSLP-sensitive population with the population sensitive to the compound,[3],6%
N.N.N.N.N.N.N.N.N.N.N.N.N.N.[Cl-].[Cl-].[Cl-].[Cl-].[Cl-].[Cl-].[O-2].[O-2].[Ru+3].[Ru+3].[Ru+4] [ruthenium red],neuronal sensitivity to TSLP after TRPV1 and TRPA1 inhibition,[3]; 20 μM ruthenium red,significantly decreased
SLIGRL [widely used PAR2 ligand mimetic],TSLP secretion,[5],robust secretion
same,TSLP secretion in the absence of external Ca^2+,[5],not observed
same,intracellular Ca^2+ response of keratinocytes,[1],evoked a rise in intracellular Ca^2+
same,NFAT translocation to the nucleus,[2]; SLIGRL 100 μM for 30 minutes,induced robust NFAT translocation
same,expression of TSLP transcripts,[6],robustly increased
same,reversal potential of SLIGRL-evoked currents,[7],no measurable reversal potentials below +80 mV
same,SLIGRL-evoked currents,"[7]; dependent on extracellular Ca^2+, inwardly-rectifying",triggered an ORAI1/2-like current
"TSLP: AD cytokine released from keratinocytes; injected as pruritogen, acts on TSLPR-positive sensory neurons",DRG neurons showing robust increases in intracellular Ca^2+,"[3]; TSLP application (2 ng/mL), wild-type neurons",4.1±0.6%
same,source of TSLP-evoked Ca^2+ signal in sensory neurons,[3]; absence (0 mM) and presence (2 mM) of extracellular Ca^2+,"triggers both release of Ca^2+ from intracellular stores, and subsequent Ca^2+ influx"
same,evoked Ca^2+ signaling abolished in IL7Rα-deficient neurons,[3]; neurons isolated from IL7Rα-deficient mice,abolished
same,TSLP-evoked Ca^2+ signals in TRPA1-deficient neurons,[3]; versus wild type littermates,significantly attenuated
same,action potential firing,[8],triggered action potential firing
same,TSLP-evoked itch behaviors in strains lacking T and B cells or mast cells,"[4]; RAG1−/−, NOD SCID, Kit(W-sh) mice, no significant differences to wild type littermates",robust itch behaviors
same,time after injection at which robust itch behaviors were observed,[4]; TSLP injection,≤ 5 min
same,wiping (pain behavior),[4]; TSLP injection into the cheek of wild type mice,never observed
same,latency to scratch,[4]; TSLP injection into the cheek of wild type mice (2.5 μg/20 μl),4.1 ± 0.3 min
same,itch-evoked scratching,"[4]; TSLP injection into the cheek of wild type mice, versus vehicle",evoked robust scratching
same,TSLP-evoked scratching in TRPA1-deficient mice,[4]; cheek injection 2.5 μg/10 μL,abolished
same,TSLP-evoked scratching in TRPV1-deficient mice,[4]; cheek injection 2.5 μg/10 μL,normal
same,TSLP-evoked scratching in IL7Rα-deficient mice,"[4]; cheek injection, versus wild type",significantly attenuated
"VGRPEWWMDYQKRYG [BAM8-22, MrgprX1-specific ligand, endogenous pruritogen]",overlap of the TSLP-sensitive population with the population sensitive to the compound,[3],0%
same,intracellular Ca^2+ response of keratinocytes,[1],insensitive
tryptase: endogenous PAR2 agonist,TSLP secretion,[5],robust secretion
same,TSLP secretion in the absence of external Ca^2+,[5],not observed
same,intracellular Ca^2+ response of keratinocytes,[1],evoked a rise in intracellular Ca^2+
same,activation of MrgprC11,[9],does not activate
same,tryptase-evoked itch in IL7Rα-deficient mice,[4]; cheek 100 μg/20 μL,significantly attenuated
same,tryptase-evoked itch in PAR2-deficient mice,[4]; cheek 100 μg/20 μL,significantly attenuated
same,tryptase-evoked itch behaviors,"[4]; wild type mice, cheek 100 μg/20 μL, scratching quantified for 1 h",induced robust itch behaviors
